Details: 0.15% of sorbic acid in squalane/cyclodextrin composition

With `C/C=C/C=C/C(=O)O` [sorbic acid] the anti-acne effect was “does not give any anti-acne effect”.
